Source: EP4534542A1, “THIOSUGAR BASED ISOTHIOCYANATES AND USES THEREOF” (Universidad de Sevilla, priority 2023, dated 2025)
Where two headings read alike, the source gives them in different places.

Tests used:
[1] = system: HL60 (Acute myeloid leukaemia); assay: Antileukemic activity, cell viability (CCK-8 Cell Counting Kit); assay type: cell-based; details: Homo sapiens, HL-60; 18 h incubation, compounds 0 - 100 µM; read-out: IC50 Cancer cells HL60 (Acute myeloid leukaemia)
Procedure: (§1) HaCaT cells (human keratinocytes, reference control), A549 (human lung adenocarcinoma cells), MeWo (human melanoma cells) and T24 (human bladder cancer cells) were purchased from Cell Lines Service (CLS). Cells were grown in Dulbecco's Modified Eagle's Medium (DMEM) supplemented with 100 U/mL penicillin, 100 µg/mL streptomycin and 10% fetal bovine serum. HL60 cell line (acute myeloid leukaemia, AML) was obtained from ATCC. It was cultured in IMDM medium supplemented with 100 U/mL penicillin, 100 µg/mL streptomycin and 10% fetal bovine serum. U937 (AML) and Jurkat cells (ALL) were obtained from DMSZ, Braunschweig, Germany, and ATCC, respectively. They were cultivated in RPMI medium, supplemented with 100 U/mL penicillin, 100 µg/mL streptomycin and 10% fetal bovine serum. OPM-2 cell line (MM), was obtained from DMSZ, Braunschweig, Germany and cultured in RPMI medium supplemented with 100 U/mL penicillin, 100 µg/mL streptomycin, 10% fetal bovine serum and 1X GlutaMAXTM. All cell lines were cultured at 37 ° C with 5% CO2 in a humidified incubator. Cell culture reagents were purchased from Biowest.
(§2) For the leukemic cell lines, the CCK-8 Cell Counting Kit (Dojindo Molecular Technologies) was used according to manufacturers instructions. Briefly, 50.000 cells were seeded in each well of a 96 well plate, and they were treated with increased amounts (0 - 100 µM) of each of the compounds, and incubated for 18 h at 37 °C, 5% CO2. After this period, 7 µl of the CCK-8 reagent were added to each well, and cells were further incubated for 2 h at 37 °C, 5% CO2. OD at 450 nm was obtained using a MultiskanTM GO microplate reader (Thermo Fisher Scientific, Waltham, MA, EE.UU). Cell viability in each condition was normalized to the measurement obtained in the non treated samples (100%), and were represented as average ± standard error of the mean (SEM).

[2] = system: OPM-2 (Multiple myeloma); assay: as above; assay type: cell-based; details: Homo sapiens, 18 h incubation, compounds 0 - 100 µM, read-out: IC50 Cancer cells OPM-2 (Multiple myeloma)
Procedure: as §1, §2

[3] = system: Jurkat (Acute lymphoblastic leukaemia); assay: as above; assay type: cell-based; details: Homo sapiens, 18 h incubation, compounds 0 - 100 µM, read-out: IC50 Cancer cells Jurkat (Acute lymphoblastic leukaemia)
Procedure: as §1, §2

[4] = system: U937 (Acute myeloid leukaemia); assay: as above; assay type: cell-based; details: Homo sapiens, U-937; 18 h incubation, compounds 0 - 100 µM; read-out: IC50 Cancer cells U937 (Acute myeloid leukaemia)
Procedure: as §1, §2

[5] = system: HaCaT cells; assay: Cell viability assay (resazurin), cytotoxicity in non-malignant cells; assay type: cell-based, human; details: Homo sapiens, HaCaT, read-out: IC50 HaCaT (Non-malignant keratinocyte)
Procedure: (§3) Cells were grown in Dulbecco's Modified Eagle's Medium (DMEM) supplemented with 100 U/mL penicillin, 100 µg/mL streptomycin and 10% fetal bovine serum. HL60 cell line (acute myeloid leukaemia, AML) was obtained from ATCC. It was cultured in IMDM medium supplemented with 100 U/mL penicillin, 100 µg/mL streptomycin and 10% fetal bovine serum. U937 (AML) and Jurkat cells (ALL) were obtained from DMSZ, Braunschweig, Germany, and ATCC, respectively. They were cultivated in RPMI medium, supplemented with 100 U/mL penicillin, 100 µg/mL streptomycin and 10% fetal bovine serum. […] All cell lines were cultured at 37 ° C with 5% CO2 in a humidified incubator. Cell culture reagents were purchased from Biowest. Exponentially growing cells (3000-6000 cells per well) were seeded in 96-well plates. After 24 hours, cells were treated with the drugs for 72 hours. The cell viability was then estimated with the resazurin assay, a colorimetric technique based on the capability of viable cells to reduce the blue reagent resazurin to the pink-soluble product resorufin. The amount of resorufin produced is proportional to the number of viable cells. Briefly, cells were washed once with phosphate buffered saline (PBS) and 150 µL resazurin (20 µg/mL in medium) was added to each well. The plates were incubated for 3 hours at 37 °C, 5% CO2, and finally optical densities were measured at 540 and 620 nm with a multiwell plate spectrophotometer reader (Multiskan EX Labsystems). Cell viability was calculated as a percentage compared to non-treated cells. The results were expressed as the means ± standard error of the mean (SEM). All data are from at least three independent experiments.

[6] = system: T24 (human bladder cancer cells); assay: Cell viability assay (resazurin), cytotoxic activity against solid tumours; assay type: cell-based; details: for IC50: Homo sapiens, read-out: IC50 T24 (Bladder cancer); for S.I. T24 (Selectivity Index): IC50 HaCaT divided by IC50 T24, mean of independent experiments
Procedure: as §3, with “The plates were incubated for 3 hours at 37 °C, 5% CO2, and finally optical densities were measured at 540 and 620 nm with a multiwell plate spectrophotometer reader (Multiskan EX Labsystems).” left out, “experiments. The selectivity index (S.I.) values were calculated over each cancer cell line as the mean of the IC50 value in the non-malignant cell line (HaCaT) by the IC50 in the respective cancer cell line obtained in each independent experiment.” for “experiments.”

[7] = system: A549 (human lung adenocarcinoma cells); assay: as above; assay type: cell-based; details: for IC50: Homo sapiens, read-out: IC50 A549 (Lung adenocarcino ma); for S.I. A549 (Selectivity Index): IC50 HaCaT divided by IC50 A549, mean of independent experiments
Procedure: as §3, with “The plates were incubated for 3 hours at 37 °C, 5% CO2, and finally optical densities were measured at 540 and 620 nm with a multiwell plate spectrophotometer reader (Multiskan EX Labsystems).” left out, “experiments. The selectivity index (S.I.) values were calculated over each cancer cell line as the mean of the IC50 value in the non-malignant cell line (HaCaT) by the IC50 in the respective cancer cell line obtained in each independent experiment.” for “experiments.”

[8] = system: MeWo (human melanoma cells); assay: as above; assay type: cell-based; details: for IC50: Homo sapiens, MeWo, read-out: IC50 MeWo (Melanoma; BRAF WT); for S.I. MeWo (Selectivity Index): IC50 HaCaT divided by IC50 MeWo, mean of independent experiments
Procedure: as §3, with “The plates were incubated for 3 hours at 37 °C, 5% CO2, and finally optical densities were measured at 540 and 620 nm with a multiwell plate spectrophotometer reader (Multiskan EX Labsystems).” left out, “experiments. The selectivity index (S.I.) values were calculated over each cancer cell line as the mean of the IC50 value in the non-malignant cell line (HaCaT) by the IC50 in the respective cancer cell line obtained in each independent experiment.” for “experiments.”

[9] = 72 h treatment, resazurin assay, mean ± SEM
[10] = A549, 72 h treatment, resazurin assay, mean ± SEM

IC50 [1]	IC50 [2]	IC50 [3]	IC50 [4]	SMILES	IC50 [5, 9]	IC50 [6, 9]	S.I. T24 (Selectivity Index) [6]	IC50 [7, 10]	S.I. A549 (Selectivity Index) [7]	IC50 [8, 9]	S.I. MeWo (Selectivity Index) [8]	IC50 ([5]; 72 h)	IC50 ([6]; 72 h)	IC50 ([7]; A549, 72 h)	IC50 ([8]; 72 h)
~6.6 µM	16.6 µM	20 µM	~43.3 µM	CC(=O)OC[C@H]1O[C@@H]([S@@+]([O-])c2ccccc2)[C@H](OC(C)=O)[C@@H](N=C=S)[C@@H]1OC(C)=O [(SS)-18β, Phenyl 2,4,6-tri-O-acetyl-3-isotiocianato-1,3-dideoxy-1[(S)-sulfinyl]-β-D-glucopyranose]	24.2 ± 3.9 µM	12.9 ± 3 µM	2.0±0.3	16.8 ± 2.9 µM	1.5±0.1	16 ± 2.6 µM	1.5±0.1				
~13 µM	24.9 µM	18.7 µM	~24.2 µM	CS[C@@H]1O[C@H](COC(C)=O)[C@@H](OC(C)=O)[C@H](N=C=S)[C@H]1OC(C)=O [Compound 13β, Methyl 2,4,6-tri-O-acetyl-3-isothiocyanato-1,3-dideoxy-1-thio-β-D-glucopyranoside]	70 ± 4.6 µM	42 ± 7.5 µM	1.8±0.2	51.4 ± 9.2 µM	1.5±0.2	55.9 ± 4.8 µM	1.3±0.0				
9.7 µM	17 µM	12.5 µM	25.1 µM	CCS[C@H]1O[C@H](COC(C)=O)[C@@H](OC(C)=O)[C@H](N=C=S)[C@H]1OC(C)=O [Compound 14α, Ethyl 2,4,6-tri-O-acetyl-3-isothiocyanato-1,3-dideoxy-1-thio-α-D-glucopyranoside]	51.3 ± 1.8 µM	40.7 ± 6.9 µM	1.4±0.2	40.6 ± 9 µM	1.5±0.3	46.4 ± 7.6 µM	1.2±0.2				
~13 µM	20.1 µM	17.8 µM	~26.7 µM	CCS[C@@H]1O[C@H](COC(C)=O)[C@@H](OC(C)=O)[C@H](N=C=S)[C@H]1OC(C)=O [Compound 14β, Ethyl 2,4,6-tri-O-acetyl-3-isothiocyanato-1,3-dideoxy-1-thio-β-D-glucopyranoside]	72.2 ± 13.2 µM	42 ± 5.7 µM	1.7±0.2	45.1 ± 6.8 µM	1.6±0.1	49.9 ± 8.5 µM	1.5±0.2				
4.2 µM	10.2 µM	14.4 µM	8.3 µM	CC(=O)OC[C@H]1O[C@H](Sc2ccccc2)[C@H](OC(C)=O)[C@@H](N=C=S)[C@@H]1OC(C)=O [Compound 15α, Phenyl 2,4,6-tri-O-acetyl-3-isothiocyanato-1,3-dideoxy-1-thio-α-D-glucopyranoside]	17.7 ± 1 µM	15.3 ± 2.1 µM	1.2±0.1	14.1 ± 2.9 µM	1.4±0.3	18.8 ± 2.4 µM	1.0±0.1				

SMILES	IC50 [1]	IC50 [2]	IC50 [3]	IC50 [4]	IC50 [5, 9]	IC50 [6, 9]	S.I. T24 (Selectivity Index) [6]	IC50 [7, 10]	S.I. A549 (Selectivity Index) [7]	IC50 [8, 9]	S.I. MeWo (Selectivity Index) [8]	IC50 ([5]; 72 h)	IC50 ([6]; 72 h)	IC50 ([7]; A549, 72 h)	IC50 ([8]; 72 h)
CS(=O)(=O)CCCN=C=S [Compound 6, 1-isothiocyanato-3-(methylsulfonyl)propane, reference compound]	7 µM	13 µM	10.3 µM	8.4 µM			3.3±0.1		1.9±0.4		1.3±0.2	35.9 ± 7.8 µM	10.7 ± 2.2 µM	25.2 ± 9.3 µM	29.5 ± 8.7 µM
CC(=O)OC[C@H]1O[C@@H](S(C)(=O)=O)[C@H](OC(C)=O)[C@@H](N=C=S)[C@@H]1OC(C)=O [Compound 19β, Methyl 2,4,6-tri-O-acetyl-3-isothiocyanato-1,3-dideoxy-1-sulfonyl-β-D-glucopyranose]	~24.7 µM	~48.5 µM	37.1 µM	45.7 µM			2.6±0.3		1.5±0.1		1.9±0.3	138 ± 22.5 µM	51.8 ± 2.7 µM	98 ± 24 µM	77.1 ± 14.4 µM
CCS(=O)(=O)[C@H]1O[C@H](COC(C)=O)[C@@H](OC(C)=O)[C@H](N=C=S)[C@H]1OC(C)=O [Compound 20α, Ethyl 2,4,6-tri-O-acetyl-3-isothiocyanato-1,3-dideoxy-1-sulfonyl-α-D-glucopyranose]	19.9 µM	71.9 µM	30.3 µM	74 µM			2.9±0.8		2.1±0.1		1.9±0.2	> 100 µM	55.8 ± 6 µM	92.4 ± 25.7 µM	95.3 ± 44.8 µM
CCS(=O)(=O)[C@@H]1O[C@H](COC(C)=O)[C@@H](OC(C)=O)[C@H](N=C=S)[C@H]1OC(C)=O [Compound 20β, Ethyl 2,4,6-tri-O-acetyl-3-isothiocyanato-1,3-dideoxy-1-sulfonyl-β-D-glucopyranose]	19.8 µM	37.2 µM	45.1 µM	34.7 µM			2.1±0.2		1.9±0.3		1.6±0.3	84.9 ± 15.2 µM	39.3 ± 3.7 µM	47.9 ± 10 µM	53.6 ± 7.4 µM
